Legend:
human orexin-2 receptor = human orexin-2 receptor (Homo sapiens (Human), UniProt O43614); assay: Human orexin 2 receptor radioligand binding ([3H]-EMPA competition); details: HEK293 cells stably expressing human orexin-2 receptor; [3H]-EMPA 5 nM final; read-out: OR-2 Ki
Outline: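 Competition binding on HEK293 cells stably expressing human orexin-2 receptor, using 5 nM final [3H]-EMPA in PBS, compounds 0.1 nM to 10 μM (DMSO ≤0.1%). 60 min at room temperature, then filtration and scintillation counting; nonspecific binding defined with 10 μM of a reference antagonist.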

human orexin 1 receptor = human orexin 1 receptor (Homo sapiens (Human), UniProt O43613); assay: Human orexin 1 receptor radioligand binding ([3H]-SB674042 competition); details: CHO cells stably expressing human orexin 1 receptor; [3H]-SB674042 4 nM final; read-out: OR-1 Ki
human orexin 1 receptor, sequence (O43613 whole entry): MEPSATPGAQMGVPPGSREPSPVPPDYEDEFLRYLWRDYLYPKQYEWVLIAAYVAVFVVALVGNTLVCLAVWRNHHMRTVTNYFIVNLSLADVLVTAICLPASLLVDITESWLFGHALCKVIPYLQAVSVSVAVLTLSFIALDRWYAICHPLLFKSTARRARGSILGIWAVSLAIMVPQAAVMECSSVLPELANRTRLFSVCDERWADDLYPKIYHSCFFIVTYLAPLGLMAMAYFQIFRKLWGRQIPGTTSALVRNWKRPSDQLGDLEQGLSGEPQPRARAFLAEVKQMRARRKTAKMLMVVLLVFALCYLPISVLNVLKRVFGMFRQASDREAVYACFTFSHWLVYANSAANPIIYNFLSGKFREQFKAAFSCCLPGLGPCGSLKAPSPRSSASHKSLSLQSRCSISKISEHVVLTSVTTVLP
Outline: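 CHO cells stably expressing human OX1R incubated 60 min at room temperature with [3H]-SB674042 and compounds (7 concentrations, 0.1 nM–10 μM; DMSO ≤0.1%) in PBS. Nonspecific binding defined with 10 μM of a reference urea antagonist; bound radioactivity measured by filtration and scintillation counting.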

human orexin-2 receptor, sequence (O43614 whole entry): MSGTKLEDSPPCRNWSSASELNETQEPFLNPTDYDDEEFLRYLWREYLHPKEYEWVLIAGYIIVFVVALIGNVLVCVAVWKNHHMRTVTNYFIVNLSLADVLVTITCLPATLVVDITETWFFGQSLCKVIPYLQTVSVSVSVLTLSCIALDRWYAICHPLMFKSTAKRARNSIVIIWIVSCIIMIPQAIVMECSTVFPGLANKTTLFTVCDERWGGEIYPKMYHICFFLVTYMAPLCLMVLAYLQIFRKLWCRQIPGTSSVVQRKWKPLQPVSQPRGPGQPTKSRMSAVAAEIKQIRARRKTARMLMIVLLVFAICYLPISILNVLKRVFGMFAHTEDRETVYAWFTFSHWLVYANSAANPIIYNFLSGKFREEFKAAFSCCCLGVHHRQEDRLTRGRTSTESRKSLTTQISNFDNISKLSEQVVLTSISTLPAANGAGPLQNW

Ki (human orexin-2 receptor) [nM]	Ki (human orexin 1 receptor) [nM]	Structure (SMILES)
3100	2600	Cc1onc(-c2ccccc2)c1C(=O)N1CC[C@H]2CN(c3ccnc(-c4ccccc4)n3)[C@H]2C1 [Example 197, (5-Methyl-3-phenylisoxazol-4-yl)((1R,6S)-8-(2-phenylpyrimidin-4-yl)-3,8-diazabicyclo[4.2.0]octan-3-yl)methanone]
11	16	Cc1nc(N2C[C@@H]3CCN(C(=O)c4ccccc4-n4nccn4)C[C@@H]32)nc(C)c1C [Example 270, (1R,6S)-3-{[2-(2H-1,2,3-Triazol-2-yl)phenyl]carbonyl}-8-(4,5,6-trimethylpyrimidin-2-yl)-3,8-diazabicyclo[4.2.0]octane]

— US8680275B2, “Fused heterocyclic compounds as orexin receptor modulators” (Janssen Pharmaceutica NV, priority 2009, dated 2014)
